Laboratory results taken from the NIST ThermoML archive (doi:10.1016/j.jct.2010.10.018).
± gives the expanded uncertainty stated by the source.

Assays:
[1] = 101.33 kPa, Liquid, Vibrating tube method
[2] = xn = mol fraction of the nth substance listed; details: 101 kPa, Liquid, Vibrating tube method, x2 = 0

CC(C)(C)O [2-methylpropan-2-ol]
[1]
Details	mass density [kg/m3]
299.15 K	779.48 ± 0.27
303.15 K	775.39 ± 0.27
308.15 K	770.15 ± 0.27
313.15 K	764.84 ± 0.27
318.15 K	759.46 ± 0.28
323.15 K	753.94 ± 0.28
333.15 K	742.7 ± 0.29
348.15 K	725.06 ± 0.3

O [water] + CC(C)(C)O
[2]
Details	mass density [kg/m3]
274.15 K	999.899 ± 0.11
275.15 K	999.94 ± 0.11
276.15 K	999.964 ± 0.11
277.15 K	999.972 ± 0.12
278.15 K	999.964 ± 0.11
279.15 K	999.94 ± 0.11
280.15 K	999.901 ± 0.11
281.15 K	999.848 ± 0.11
282.15 K	999.781 ± 0.11
283.15 K	999.699 ± 0.11
323.15 K	988.03 ± 0.11
333.15 K	983.191 ± 0.11
348.15 K	974.838 ± 0.11
